“Also recorded” adds a separate entry of the source.
What was measured:
125I-labelled human SAP = biological target: T1, 125I-labelled human SAP (Homo sapiens, UniProt P02743); assay: Human SAP tracer in amyloid deposits of mice with AA amyloidosis; assay type: in vivo, mouse
T1 construct: intravenous injection of ^125I-labelled pure human or mouse SAP at time zero
Protocol: (§1) Clearance from the amyloid deposits, catabolism and excretion of the human SAP tracer were monitored globally by whole body counting of the mice (left), and the total amount of mouse SAP in the amyloidotic organs was determined after killing the animals on day 5 (right). […] Immediately after the 15 minute bleed, two groups, one that had received human SAP and the other mouse SAP, received a single intraperitoneal injection of 5 mg of (R)-1-[6-(R)-2-Carboxy-pyrrolidin-1-yl]-6-oxo-hexanoyl]pyrrolidine-2-carboxylic acid (desapin). Tracer remaining in the circulation is expressed as the mean (SD) percentage of the amount at the 15 minute time point for each group. […] In one of each of the pairs of groups receiving mouse or human SAP respectively, the tracer had been mixed with (R)-1-[6-(R)-2-Carboxy-pyrrolidin-1-yl]-6-oxo-hexanoyl]pyrrolidine-2-carboxylic acid (desapin) and incubated in vitro before injection into the animals. Tracer remaining in the circulation is expressed as mean (SD) total radioactivity per gram of blood in each group. Bottom panel: effect of administration of (R)-1-[6-(R)-2-Carboxy-pyrrolidin-1-yl]-6-oxo-hexanoyl]pyrrolidine-2-carboxylic acid (desapin) in the drinking water at the concentrations shown, on circulating human SAP values in human SAP transgenic mice. Mice of approximately 20 g body weight consume about 3 ml water per day.
(§2) When (R)-1-[6-(R)-2-Carboxy-pyrrolidin-1-yl]-6-oxo-hexanoyl]pyrrolidine-2-carboxylic acid was administered by continuous infusion for 5 days via an indwelling osmotic pump, it dissociated both radiolabelled human SAP tracer, with which the amyloid deposits had previously been loaded, and all the endogenous mouse SAP in the deposits (FIG. 3). […] The SAP-(R)-1-[6-(R)-2-Carboxy-pyrrolidin-1-yl]-6-oxo-hexanoyl]pyrrolidine-2-carboxylic acid complex is evidently recognised as abnormal in vivo and swiftly removed from the circulation, but is apparently formed and/or cleared less efficiently in vivo with mouse SAP compared to human SAP.

SAP in whole human serum = biological target: T2, SAP in whole human serum (Homo sapiens, UniProt P02743); assay: Size exclusion chromatography of whole human serum mixed with drug: SAP; assay type: binding
T2 construct: Aliquots of a single pool of whole normal human serum, containing SAP and CRP; from tissue; host or cells: pooled whole normal human serum
T2 sequence (P02743 20-223): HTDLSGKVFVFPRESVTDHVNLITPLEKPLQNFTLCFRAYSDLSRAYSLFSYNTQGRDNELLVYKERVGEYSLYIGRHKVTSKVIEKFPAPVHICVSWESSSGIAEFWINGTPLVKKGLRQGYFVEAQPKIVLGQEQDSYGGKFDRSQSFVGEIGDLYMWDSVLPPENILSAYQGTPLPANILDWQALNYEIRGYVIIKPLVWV
Protocol: (§3) Aliquots of a single pool of whole normal human serum, containing SAP and CRP, were mixed with (R)-1-[6-(R)-2-Carboxy-pyrrolidin-1-yl]-6-oxo-hexanoyl]pyrrolidine-2-carboxylic acid at the molar ratios shown, with respect to pentraxin protomer, and analysed by size exclusion chromatography precisely as described previously (14). The mixtures and the column eluants contained either no calcium ions or 2 mM calcium, and the concentrations of drug appropriate to maintain the molar ratios indicated above. SAP in whole serum is a stable soluble pentameric assembly of protomers, stabilised by the presence of the normal high concentration of serum albumin. However as SAP is separated from serum albumin during gel filtration with a calcium containing eluant, the SAP autoaggregates and elutes entirely as high molecular weight polymers in the void volume of the column. This is because, in the absence of a specific ligand to which it can bind, isolated human SAP is insoluble in the presence of calcium (14). However in the absence of calcium, where no ligand binding or autoaggregation can occur, SAP forms stable decamers, providing an excellent marker for the elution volume of this molecular assembly (14). Human CRP is a stable pentamer either in the presence or absence of calcium and thus provides a robust marker for the elution position of that molecular form (14).

SAP = SAP binding to experimentally induced amyloid deposits in mice; assay type: in vivo, mouse; conditions: compared with 1-(3-Mercapto-2-methyl-1-oxopropyl)-D-proline
Description: The potency of (R)-1-[6-(R)-2-Carboxy-pyrrolidin-1-yl]-6-oxo-hexanoyl]pyrrolidine-2-carboxylic acid in vivo was initially considered to be consistent with its lower IC50 value in vitro. However the decameric assembly of pentameric SAP molecules, induced by the cross linking capacity of the palindromic drug, is an abnormal molecular configuration which, according to the present invention, will be recognised in vivo and promptly cleared from the circulation. This action of the drug, leading to massive depletion of SAP from the plasma, makes a critical contribution to removal of SAP from the amyloid deposits because the SAP in amyloid is derived from, and in equilibrium with, the plasma SAP pool.

CRP in whole human serum = biological target: T3, CRP in whole human serum (Homo sapiens, UniProt P02741); assay: Size exclusion chromatography of whole human serum mixed with drug: CRP; assay type: binding
T3 construct: Aliquots of a single pool of whole normal human serum, containing SAP and CRP; from tissue; host or cells: pooled whole normal human serum
T3 sequence (P02741 19-224): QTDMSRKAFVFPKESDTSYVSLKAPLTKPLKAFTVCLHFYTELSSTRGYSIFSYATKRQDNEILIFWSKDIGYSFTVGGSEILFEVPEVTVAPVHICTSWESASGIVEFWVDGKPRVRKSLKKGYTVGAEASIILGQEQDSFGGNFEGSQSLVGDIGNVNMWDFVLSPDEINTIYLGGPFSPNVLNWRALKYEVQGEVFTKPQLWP
Protocol: as §3

radiolabelled mouse SAP = biological target: T4, radiolabelled mouse SAP (Mus musculus, UniProt P12246); assay: Plasma clearance of radiolabelled mouse SAP tracer in mice; assay type: in vivo
T4 construct: intravenous injection of ^125I-labelled pure human or mouse SAP at time zero
T4 sequence (P12246 21-224): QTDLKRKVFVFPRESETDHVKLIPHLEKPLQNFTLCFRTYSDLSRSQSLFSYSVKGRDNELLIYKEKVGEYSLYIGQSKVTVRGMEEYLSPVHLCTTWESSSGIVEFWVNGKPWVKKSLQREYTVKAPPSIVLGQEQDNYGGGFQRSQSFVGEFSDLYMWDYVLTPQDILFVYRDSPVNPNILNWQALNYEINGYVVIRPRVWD
Protocol: as §1, with “day. […]” for “day.”

plasma SAP = biological target: T5, plasma SAP (Homo sapiens, UniProt P02743); assay: Subcutaneous injection in patients with systemic amyloidosis: plasma SAP; assay type: in vivo; conditions: subcutaneous injection 0.25 mg/kg/day in 12 hourly divided doses
T5 construct: from tissue; host or cells: plasma of patients in vivo
T5 sequence (P02743 20-223): as the sequence (P02743 20-223) above
Protocol: The doses of (R)-1-[6-(R)-2-Carboxy-pyrrolidin-1-yl]-6-oxo-hexanoyl]pyrrolidine-2-carboxylic acid (desapin) shown were given by 12 hourly subcutaneous injections to two individual patients with systemic amyloidosis, and with small and moderate amyloid loads respectively. The disappearance of circulating SAP was effectively the same as during intravenous infusion of the drug, and in the patient illustrated in the right panel, who had received a tracer dose of ^123I-SAP, there was accumulation of SAP in the liver and accelerated clearance from the spleen.

circulating SAP = biological target: T6, circulating SAP (Mus musculus, UniProt P12246); assay: Circulating SAP in normal wild type mice; assay type: in vivo; conditions: none of the routes caused depletion
T6 construct: all the endogenous mouse SAP in the deposits; from tissue; host or cells: mice in vivo: amyloidotic organs, or plasma of normal wild type mice
T6 sequence (P12246 21-224): T4 sequence (P12246 21-224)
Protocol: as §2

[1] = Metabolism, excretion and oral bioavailability in mice; assay type: in vivo, mouse
[2] = drug:protein 1:1, calcium present
[3] = drug:protein 10:1, calcium present
[4] = drug:protein 100:1, calcium present

T1 sequence (P02743 20-223): as the sequence (P02743 20-223) above

O=C(O)[C@H]1CCCN1C(=O)CCCCC(=O)N1CCC[C@@H]1C(=O)O [(R)-1-[6-(R)-2-Carboxy-pyrrolidin-1-yl]-6-oxo-hexanoyl]pyrrolidine-2-carboxylic acid]
Dissociation of human SAP from amyloid deposits (125I-labelled human SAP; 50 μg/kg/day, continuous infusion): significantly dissociated | Dissociation of radiolabelled human SAP tracer from amyloid deposits (125I-labelled human SAP; continuous infusion for 5 days via osmotic pump): dissociated | Uptake of radiolabelled human SAP tracer into mouse AA amyloid deposits (125I-labelled human SAP; intermittent intraperitoneal or subcutaneous injection): inhibited uptake | Molecular assembly (SAP in whole human serum; [2]): some of the SAP was solubilised as stable drug-decamer complexes; also recorded: High MW | Molecular assembly (SAP in whole human serum; [3]): High MW; also recorded: Decamer | Elution volume (SAP in whole human serum; [4]): 10.0 to 10.5 mL | Molecular assembly (SAP in whole human serum; [4]): all the SAP was in this form; also recorded: Decamer | Activity in inhibiting SAP binding and dissociating SAP from deposits, relative to lead compound (SAP): more active | Elution volume (CRP in whole human serum; [2]): 12.0 to 12.5 mL | Molecular assembly (CRP in whole human serum; [2]): Pentamer | Elution volume (CRP in whole human serum; [3]): 12.0 to 12.5 mL | Molecular assembly (CRP in whole human serum; [3]): Pentamer | Elution volume (CRP in whole human serum; [4]): 12.0 to 12.5 mL | Molecular assembly (CRP in whole human serum; [4]): Pentamer | Clearance of radiolabelled mouse SAP (radiolabelled mouse SAP; single intraperitoneal injection of 5 mg): no significant effect | Clearance of radiolabelled mouse SAP preincubated with drug in vitro (radiolabelled mouse SAP; tracer preincubated with drug before intravenous injection into normal mice): extremely rapidly cleared | Effect on plasma SAP compared with intravenous infusion (plasma SAP): the same effect | Routes that caused depletion of circulating SAP in normal wild type mice (circulating SAP): neither oral administration, nor intermittent injection or continuous infusion | Excretion [1]: very rapidly excreted, predominantly in the urine, with a small amount in the bile | Metabolism [1]: not metabolised | Oral bioavailability [1]: very limited oral bioavailability
